Where a name gives a salt, the structure may show the parent alone. Marks after values point to notes of the source that are not given here.
What was measured:
[1] = system: combined bacterial test inoculum: Acinetobacter calcoaceticus, Escherichia coli, Pseudomonas aeruginosa, Enterobacter cloacae; assay: Bacterial challenge test (ASTM D2574-97, modified) in standard water based interior paint; assay type: cell-based; parameters: key to Streak plate rank, 1st inoculation 24 h / Streak plate rank, 1st inoculation 72 h / Streak plate rank, 2nd inoculation 72 h / Streak plate rank, 3rd inoculation 24 h: 0 = no growth; 1 = 1-5 Colony Forming Unit (cfu); 2 = 6-15 cfu; 3 = 16-30 cfu; 4 = 31-45 cfu; 5 = greater than 45 cfu; 5c = Confluent Growth; settings: for effect of guanidine on bactericidal activity of 4-isothiazolin-3-ones (in words): in combination with BIT and BBIT, Tables 3 and 5; for Dilution plate count, 3rd inoculation 72 h / Streak plate rank, 3rd inoculation 24 h: inoculum 2.50%; for Streak plate rank, 2nd inoculation 72 h: inoculum 5%; for Streak plate rank, 1st inoculation 24 h / Streak plate rank, 1st inoculation 72 h: inoculum 10%
Method: (§1) The following bacterial and fungal challenge tests were performed to ascertain whether low concentrations of 4-isothiazolin-3-one biocidal active compounds, pyrithione, coumarin or guanidine adjuvant are sufficient to prevent microbial contamination of final products when deliberately inoculated with spoilage microbes.
(§2) The tests were performed according to ASTM standard D2574-97 (Standard Test Method for Resistance of Emulsion Paints in the Container to Attack by Microorganisms, ASTM International, West Conshohocken, Pa.), with higher inoculation volumes and frequency. A standard water based interior paint was used as the test substrate. Sample sizes of 20 g test substrate were used and the test samples were prepared in a sterile 30 mL square Nalgene bottle.
The bacteria were grown on pH 5, 7, or 9 Trypticase Soy Agar (TSA) lawns. The bacteria were grown individually on TSA and harvested by using sterile buffered water. The bacterial lawns were washed off with 30 mL of sterile water and an equal volume of each individual cell suspension was withdrawn from each serum bottle to make a combined cell suspension. Combined bacterial suspension were about 10^7 cfu/mL, which provides about 10^6 cfu/mL in the sample.
(§3) The following microorganisms were used for inoculation of the tested samples:
(§4) For the bacterial challenge testing, each sample was inoculated with a combined bacterial test inoculum volume equivalent to 10% of the total initial sample volume for the initial inoculation, 5% of the total initial sample volume for the second inoculation and 2.5% of the total initial sample volume for the third inoculation. Inoculum volumes for the fungal challenge tests were 2%, 1% and 0.5% of the total initial sample volume, respectively. Samples were inoculated every 96 h.
(§5) Concentrations of biocidal active compounds and adjuvants refer to the final concentration in the test samples prior to the first inoculation.
(§6) The efficacy of the added agent in each sample was monitored by means of a streak plate test after 24 hours (all inoculations) and 72 hours of inoculation (first and second inoculation). At 72 hours of the third inoculation performed, a dilution plate count was performed in order to obtain a quantitative measurement of contamination (cfu/mL). A count of less than 10 colony forming units per mL ([…]) is considered to show no measurable contamination. For the streak plate tests, bacterial samples were streaked on Tryptic Soy Agar (TSA) and incubated for 48 hours at 30° C. before reading. Fungal samples were streaked on Potato Dextrose Agar (PDA) and incubated for 5 days at 25° C. before reading.
(§7) The streak plates were ranked from 0-5c according to the degree of microbial growth:
(§8) The challenge tests were performed as described above.

[2] = system: fungal test inoculum: Aspergillus niger, Penicillium funiculosum, Candida albicans; assay: Fungal challenge test (ASTM D2574-97, modified) in standard water based interior paint; assay type: cell-based; parameters: key to Streak plate rank, 2nd inoculation 72 h / Streak plate rank, 1st inoculation 72 h / Streak plate rank, 1st inoculation 24 h / Streak plate rank, 2nd inoculation 24 h / Streak plate rank, 3rd inoculation 24 h: 0 = no growth; 1 = 1-5 Colony Forming Unit (cfu); 2 = 6-15 cfu; 3 = 16-30 cfu; 4 = 31-45 cfu; 5 = greater than 45 cfu; 5c = Confluent Growth; settings: for effect of guanidine on fungicidal activity of 4-isothiazolin-3-ones (in words): in combination with BIT and BBIT, Tables 4 and 6; for Dilution plate count, 3rd inoculation 72 h / Streak plate rank, 3rd inoculation 24 h: inoculum 0.50%
Method: as §1, §2
Fungal lawns were grown on Potato Dextrose Agar (PDA) or Sabouraud Dextrose Agar (SAB). Individual fungal spore suspensions were harvested by adding 10 mL of sterile 0.05% Triton X to fungal lawns. The lawns were then gently agitated by rubbing a sterile swab on the lawn, being careful not to puncture the agar. The liquid was then aseptically transferred to a sterile bottle containing sterile glass beads. The top of the bottle was closed and the bottle shaken vigorously to break up any chunks in the suspension. The shaken spore suspension was decanted through sterile fibers into another sterile bottle. The decanted spore suspension was counted using a hemocytometer. Once the spore counts were determined, each suspension was diluted in order to obtain 10^6 spore/mL. Each diluted fungal suspension was poured into a sterile container.
as §3
as §4, with “Inoculum volumes for the fungal challenge tests were 2%, 1% and 0.5% of the total initial sample volume, respectively.” left out
as §5, §6, §7, §8

## CCCCCCN(CCCCCC)C(=N)N.I [N,N-dihexylguanidine HI]
[1]
  effect of guanidine on bactericidal activity of 4-isothiazolin-3-ones (in words): not achieved
[2]
  effect of guanidine on fungicidal activity of 4-isothiazolin-3-ones (in words): not achieved

## CNC(=N)N [methylguanidine HCl, Methylguanidine HCl]
[1]
  effect of guanidine on bactericidal activity of 4-isothiazolin-3-ones (in words): not achieved
[2]
  effect of guanidine on fungicidal activity of 4-isothiazolin-3-ones (in words): not achieved

## [Na+].[O-][n+]1ccccc1[S-] [NaPT, sodium pyrithione]
[1]; 80 ppm
  Dilution plate count, 3rd inoculation 72 h: 2.2 × 10^7 cfu/mL
  Streak plate rank, 3rd inoculation 24 h: 5c
  Streak plate rank, 2nd inoculation 72 h: 5c
  Streak plate rank, 1st inoculation 24 h: 5c
  Streak plate rank, 1st inoculation 72 h: 5c
[2]; 80 ppm
  Dilution plate count, 3rd inoculation 72 h: <10 cfu/mL
  Streak plate rank, 3rd inoculation 24 h: 0
[2]; 80 ppm, inoculum 1%
  Streak plate rank, 2nd inoculation 24 h: 0
  Streak plate rank, 2nd inoculation 72 h: 0
[2]; 80 ppm, inoculum 2%
  Streak plate rank, 1st inoculation 24 h: 0
  Streak plate rank, 1st inoculation 72 h: 0

## O=c1ccc2ccccc2o1 [Coumarin]
[1]; 500 ppm
  Dilution plate count, 3rd inoculation 72 h: 3.5 × 10^6 cfu/mL
  Streak plate rank, 3rd inoculation 24 h: 5c
  Streak plate rank, 2nd inoculation 72 h: 5c
  Streak plate rank, 1st inoculation 24 h: 5c
  Streak plate rank, 1st inoculation 72 h: 5c
[1]; used individually, Table 1
  bactericidal activity (in words): no bactericidal activity
[2]; 500 ppm
  Dilution plate count, 3rd inoculation 72 h: 1.1 × 10^2 cfu/mL
  Streak plate rank, 3rd inoculation 24 h: 4 (4 = 31-45 cfu)
[2]; 500 ppm, inoculum 1%
  Streak plate rank, 2nd inoculation 72 h: 2 (2 = 6-15 cfu)
[2]; 500 ppm, inoculum 2%
  Streak plate rank, 1st inoculation 24 h: 3 (3 = 16-30 cfu)
  Streak plate rank, 1st inoculation 72 h: 3 (3 = 16-30 cfu)

## CCCCn1sc2ccccc2c1=O [BBIT, N-(n-butyl)-1,2-benzisothiazolin-3-one]
[1]; 25 ppm
  Dilution plate count, 3rd inoculation 72 h: 8.3 × 10^6 cfu/mL
  Streak plate rank, 3rd inoculation 24 h: 5c
  Streak plate rank, 2nd inoculation 72 h: 5c
  Streak plate rank, 1st inoculation 24 h: 5c
  Streak plate rank, 1st inoculation 72 h: 5c
[1]; 50 ppm
  Dilution plate count, 3rd inoculation 72 h: 6.0 × 10^6 cfu/mL
  Streak plate rank, 3rd inoculation 24 h: 5c
  Streak plate rank, 2nd inoculation 72 h: 5c
  Streak plate rank, 1st inoculation 24 h: 5c
  Streak plate rank, 1st inoculation 72 h: 5c
[1]; 100 ppm
  Dilution plate count, 3rd inoculation 72 h: 5.6 × 10^6 cfu/mL
  Streak plate rank, 3rd inoculation 24 h: 5c
  Streak plate rank, 2nd inoculation 72 h: 5c
  Streak plate rank, 1st inoculation 24 h: 5c
  Streak plate rank, 1st inoculation 72 h: 5c
[2]; 25 ppm
  Dilution plate count, 3rd inoculation 72 h: 1.0 × 10^1 cfu/mL
  Streak plate rank, 3rd inoculation 24 h: 2 (2 = 6-15 cfu)
[2]; 25 ppm, inoculum 1%
  Streak plate rank, 2nd inoculation 72 h: 0
[2]; 25 ppm, inoculum added was 5%
  Streak plate rank, 1st inoculation 24 h: 4* (4 = 31-45 cfu)
  Streak plate rank, 1st inoculation 72 h: 1* (1 = 1-5 Colony Forming Unit (cfu))
[2]; 50 ppm
  Dilution plate count, 3rd inoculation 72 h: <10 cfu/mL
  Streak plate rank, 3rd inoculation 24 h: 1 (1 = 1-5 Colony Forming Unit (cfu))
[2]; 50 ppm, inoculum 1%
  Streak plate rank, 2nd inoculation 72 h: 0
[2]; 50 ppm, inoculum added was 5%
  Streak plate rank, 1st inoculation 24 h: 3* (3 = 16-30 cfu)
  Streak plate rank, 1st inoculation 72 h: 1* (1 = 1-5 Colony Forming Unit (cfu))
[2]; 100 ppm
  Dilution plate count, 3rd inoculation 72 h: <10 cfu/mL
  Streak plate rank, 3rd inoculation 24 h: 1 (1 = 1-5 Colony Forming Unit (cfu))
[2]; 100 ppm, inoculum 1%
  Streak plate rank, 2nd inoculation 72 h: 0
[2]; 100 ppm, inoculum added was 5%
  Streak plate rank, 1st inoculation 24 h: 4* (4 = 31-45 cfu)
  Streak plate rank, 1st inoculation 72 h: 1* (1 = 1-5 Colony Forming Unit (cfu))

Reference: US20210235699A1, “Adjuvant Compositions Comprising a Tetramethylguanidine and a 4-Isothiazolin-3-One” (Lonza, LLC, priority 2018, published 2021)
